Patent US20260207564A1, “DOSAGE REGIME OF ORFORGLIPRON FOR TREATING A SUBJECT WITH TYPE 2 DIABETES (T2D), OBESITY, OR OVERWEIGHT WITH AT LEAST ONE WEIGHT RELATED COMORBIDITY” (Eli Lilly and Company, priority 2022, published 2026)
Like-named read-outs stand apart in the source and are kept apart here. One block for each compound: values may come before it.

Key:
[1] = Phase 1 food effect study B, 16 mg daily dose reached by weekly escalation, healthy adults (Example 6); assay type: in vivo, human; details: for AUC(0-t): read-out: AUC(0-24), geometric LS mean (geometric CV %); for Cmax: read-out: Cmax, geometric LS mean (geometric CV %)
[2] = Phase 1 food effect study A, single 3 mg dose, healthy adults (Example 6); assay type: in vivo, human; details: for AUC(0-inf) / Cmax / half-life: human, in vivo, oral, 3 mg; for AUC(0-inf): read-out: AUC(0-∞), geometric LS mean (geometric CV %); for Cmax: read-out: Cmax, geometric LS mean (geometric CV %); for half-life: read-out: T1/2, geometric mean (range) (converted)
[3] = assay type: in vivo, human; details: for percentage of patients who attained an HbA1c of 7% or less: 26 weeks
Experimental: Two Phase 2 studies have evaluated the safety and efficacy of Compound 1a for the treatment of T2D and another for treatment of obesity or overweight with at least one weight related comorbidity.
The 36 and 45 mg cohorts were subdivided in a 36 mg-1 and 36 mg-2 as well as 45 mg-1 and 45 mg-2 respectively, as different starting doses, dose escalations and dose escalation steps were investigated in these subgroup cohorts (FIG. 4).
Eligible male or female participants were >18 years of age with T2D with a HbA1c 7.0% to 10.5% and a body mass index (BMI) of ≥23 kg/m2, treated with diet and exercise alone or with a stable dose of metformin and with a stable body weight (≤5% body weight gain and/or loss) for at least 3 months prior to screening/Visit 1.
The study period included a 2-week screening/lead in period and a 26-week treatment period. During the treatment period, doses were escalated for all treatment groups. The dose escalation period ranged from 4 to 12 weeks depending on dose group. The initial dose was 2 or 3 mg followed by additional escalation steps depending on assigned cohort (FIG. 4). […] All participants were provided healthy eating and exercise education by study personnel throughout the trial.
Key Safety and tolerability endpoints included the frequency of patient- and investigator-reported adverse events, rate and incidence of hypoglycaemia events (glucose <70 mg/dL [3.9 mmol/L] and ≥54 mg/dL [3.0 mmol/L], or glucose <54 mg/dL [3.0 mmol/L]), and change in safety laboratory parameters, electrocardiogram, and vital signs.
The estimand used for efficacy analyses was an “efficacy estimand”, representing the average treatment effect for the randomized population if the treatment was administered as intended, thus including data from all randomized participants who received at least one dose of study drug and excluding data after permanent discontinuation of study drug. All tests of treatment effects were conducted at a 2-sided alpha level of 0.05 without adjustment for multiple comparisons, and 2-sided 95% CIs were calculated.
Safety analyses were conducted by comparing safety of OFG with placebo and with dulaglutide irrespective of adherence to study drug. The safety analyses were conducted using the safety analysis set, which includes all randomized participants who received at least one dose of study drug. The results were presented in summary statistics, point estimates, and 95% confidence intervals along with p-values for treatment comparisons.

[4] = human, in vivo, oral, 16 mg, STUDY B - 16 mg (with titration), Fasted
[5] = human, in vivo, oral, 16 mg, STUDY B - 16 mg (with titration), Fed

Tmax, median (range) ([1]; STUDY B - 16 mg (with titration), Fasted): 8.0 (4.0-16.0) h
Tmax, median (range) ([1]; STUDY B - 16 mg (with titration), Fed): 8.0 (4.0-24.0) h
AUC(0-t) [1, 4]: 1200 ng·h/mL
Cmax [1, 4]: 80.5 ng/mL
half-life ([1]; human, in vivo, oral, 16 mg, STUDY B - 16 mg (with titration), Fasted, read-out: T1/2, geometric mean (range) (converted)): 26 h
AUC(0-t) [1, 5]: 1050 ng·h/mL
Cmax [1, 5]: 67.5 ng/mL
Tmax and T½ with or without food ([1]; study B): similar
AUC(0-24) lower when administered with food ([1]; study B, 16 mg daily dose): 18%
Cmax lower in the fed state ([1]; study B, 16 mg daily dose, fed vs fasted): 21%
Tmax, median (range) ([2]; STUDY A - 3 mg, Fasted): 8.0 (4.0-24.0) h
AUC(0-inf) ([2]; STUDY A - 3 mg, Fasted): 362 ng·h/mL
Cmax ([2]; STUDY A - 3 mg, Fasted): 13.4 ng/mL
half-life ([2]; STUDY A - 3 mg, Fasted): 29.5 h
AUC(0-inf) ([2]; STUDY A - 3 mg, Fed): 260 ng·h/mL
Cmax ([2]; STUDY A - 3 mg, Fed): 10.1 ng/mL
half-life ([2]; STUDY A - 3 mg, Fed): 27.9 h
Tmax and T½ with or without food ([2]; study A): similar
AUC(0-∞) lower when administered with food ([2]; study A, single 3 mg dose): 24%
Cmax lower in the fed state ([2]; study A, single 3 mg dose, fed vs fasted): 23%
pulse rate changes from baseline ([3]; in vivo): +3.0 to +6.1 bpm
Compound: Cc1cc(-n2nc3c(c2-n2ccn(-c4ccc5c(cnn5C)c4F)c2=O)[C@H](C)N(C(=O)c2cc4cc([C@H]5CCOC(C)(C)C5)ccc4n2[C@@]2(c4noc(=O)[nH]4)C[C@@H]2C)CC3)cc(C)c1F [OFG, 3-[(1S,2S)-1-[5-[(4S)-2,2-dimethyloxan-4-yl]-2-[(4S)-2-(4-fluoro-3,5-dimethylphenyl)-3-[3-(4-fluoro-1-methylindazol-5-yl)-2-oxoimidazol-1-yl]-4-methyl-6,7-dihydro-4H-pyrazolo[4,3-c]pyridine-5-carbonyl]indol-1-yl]-2-methylcyclopropyl]-4H-1,2,4-oxadiazol-5-one, 0.5 Ca hydrate]
TEAE decreased appetite ([1]; study B): 69.7%
TEAE nausea ([1]; study B): 48.5%
TEAE vomiting ([1]; study B): 45.5%
TEAEs occurrence over dosing ([1]; study B): occurred most often with the starting dose and decreased with dose escalation
treatment emergent adverse events (TEAEs) severity ([1]; study B): mild
treatment emergent adverse events (TEAEs) severity ([2]; study A): mild
percentage of patients who attained an HbA1c of 7% or less ([3]; across OFG dose groups): 65.2% to 95.8
most common adverse events ([3]; in vivo): gastrointestinal, mild to moderate in severity
systolic or diastolic blood pressure compared with dulaglutide or placebo ([3]; in vivo): no statistically significant differences
fasting glucose ([3]; versus placebo): significant improvements versus placebo
mean changes from baseline in body weight ([3]; week 26, OFG 3 mg): -3.7 kg
body weight ETD versus dulaglutide ([3]; week 26, OFG 12 mg): -2.6 kg
body weight ETD versus placebo ([3]; week 26, OFG 12 mg): -4.3 kg
mean changes from baseline in body weight ([3]; week 26, OFG 12 mg): -6.5 kg
body weight ETD versus dulaglutide ([3]; week 26, OFG 24 mg): -5.9 kg
body weight ETD versus placebo ([3]; week 26, OFG 24 mg): -7.6 kg
mean changes from baseline in body weight ([3]; week 26, OFG 24 mg): -9.7 kg
body weight ETD versus dulaglutide ([3]; week 26, OFG 36 mg): -5.7 kg
body weight ETD versus placebo ([3]; week 26, OFG 36 mg): -7.4 kg
mean changes from baseline in body weight ([3]; week 26, OFG 36 mg): -9.5 kg
body weight ETD versus dulaglutide ([3]; week 26, OFG 45 mg): -6.2 kg
body weight ETD versus placebo ([3]; week 26, OFG 45 mg): -7.9 kg
mean changes from baseline in body weight ([3]; week 26, OFG 45 mg): -10.1 kg
mean change in HbA1c from baseline ([3]; week 26, across OFG dose groups): −0.77% to −1.67

Compound: dulaglutide [reference compound]
percentage of patients who attained an HbA1c of 7% or less ([3]; dulaglutide 1.5 mg): 64.1%
pulse rate changes from baseline ([3]; in vivo): +2.3 bpm
mean changes from baseline in body weight ([3]; week 26, dulaglutide): -3.9 kg
mean change in HbA1c from baseline ([3]; week 26, dulaglutide 1.5 mg): −1.1%
